Assay results published in publication PMC8234218, “In Vitro and In Vivo Efficacies of the Linear and the Cyclic Version of an All-D-Enantiomeric Peptide Developed for the Treatment of Alzheimer’s Disease” (International Journal of Molecular Sciences, 2021).
Where two headings read alike, the source gives them in different places. Where a SMILES comes first, the peptide text is derived from it. [ ]: non-standard residue; d: D form.

How the values were obtained:
[1] = Proteolytic stability in simulated gastric fluid (SGF); format: in vitro ADME
Description: (§1) Both compounds have already been extensively studied with respect to their in vivo pharmacokinetic profiles. Here, we performed some additional test to investigate the proteolytic stability of the compounds in simulated gastric (SGF) and intestinal fluid (SIF) and human plasma and human liver microsomes. The experiments were performed as described previously. According to the guidelines of the European Pharmacopoeia 7.0, SGF and SIF were prepared. Plasma was purchased from Biotrend with K3-EDTA as an anticoagulant (Biotrend, Köln, Germany). Human liver microsomes were pooled from different donors and purchased from Sekisui XenoTech (Kansas City, KS, USA). In order to determine whether the compounds RD2D3 and cRD2D3 are stable or would be metabolized, 150 µM of each compound was incubated in triplicate for defined time points slightly shaking at 37 °C in the media described above (SGF and SIF: 4 and 8 h, plasma: 8, 24 and 48 h and microsomes: 8 and 24 h). Incubation was stopped by precipitating the proteins. For this, 3% trichloroacetic acid (w/v) was added to the respective sample under vortexing followed by a centrifugation step (14,000× g at 4 °C for 5 min). For analysis, supernatants containing the compounds were collected. The precipitated media without compound was used as a control and as reference for the quantification served each medium with compound where the reaction was stopped immediately by precipitating the proteins. All samples were analyzed by RP-HPLC as previously described.

Aβ(1-42) = molecular target: T1, Aβ(1-42) (Homo sapiens, UniProt P05067); assay: SPR, D-peptide immobilized, Aβ(1-42) monomers as analyte; format: binding; details: D-peptide immobilized on series S CM-5 chip, Aβ(1-42) monomers analyte 0.0045-10 µM, 10 mM HEPES + 50 mM NaCl pH 7.4, 25 °C, steady-state Langmuir 1:1 fit (Fig. 1g), read-out: KD Aβ(1-42), D-peptide as ligand
T1 construct: Synthetic Aβ(1-42) and (Gln^22, Asn^23)-Amyloid β-Protein (1-40) (D/I Aβ) with >95% purity were purchased; purchased Bachem (Bubendorf, Switzerland); host or cells: chemical synthesis
Description: The dissociation constant (KD) of RD2D3 and cRD2D3 binding to Aβ(1-42) and D/I Aβ was determined by SPR spectroscopy using a Biacore T200 instrument (Biacore, GE Healthcare, Uppsala, Sweden). Aβ(1-42) or D/I Aβ was used as the ligand, while RD2D3 and cRD2D3 were used as the analyte or vice versa.
By using the compounds (RD2D3 and cRD2D3) as ligands, they were immobilized on two separate channels on a series S CM-5 sensor chip (Cytiva, GE Healthcare, Uppsala, Sweden) by amine coupling. Both flow cells on each channel were activated with a mixture of 50 mM N-hydroxysuccinimide (NHS) and 16.1 mM N-ethyl-N’-(dimethylaminopropyl)carbodiimide (EDC) (XanTec, Düsseldorf, Germany) for 7 min. The peptides were diluted to 50 µg/mL in 10 mM maleic acid pH 6 (AppliChem, Darmstadt, Germany) and injected over flow cell two of each channel to a final signal between 600 and 900 RU. After the peptides were immobilized, the ligand and reference flow cells of each channel were quenched by injecting 1 M ethanolamine pH 8.5 (XanTec, Düsseldorf, Germany) for 7 min. […] Aβ(1-42) or D/I Aβ were diluted in the running buffer to the following concentrations: 10 µM, 3.3 µM, 1.1 µM, 0.37 µM, 0.12 µM, […], 0.014 µM and 0.0045 µM. All samples were injected over the flow cells for 180 s, followed by a dissociation step of 600 s with running buffer. […]

[2] = cited from earlier work
From the text: Our society is aging and, with it, the number of diseases of old age, especially dementias, are increasing. Alzheimer’s disease (AD) is a devastating neurodegenerative disorder and the most common form of dementia worldwide. Its clinical symptoms are considered to be disturbances of memory, language, spatial and temporal orientation and cognitive decline. The pathological hallmarks of the disease are characterized by neurodegeneration, intracellular depositions of neurofibrillary tangles and extracellular accumulations of amyloid-β (Aβ) plaques.

D/I Aβ-oligomers = molecular target: T2, D/I Aβ-oligomers (Homo sapiens, UniProt P05067, D694N/E693Q); assay: QIAD assay, D/I Aβ oligomer elimination; format: biochemical; details: 40 µM D/I Aβ preincubated 15 min, 10 µM D-peptide, 30 min coincubation, density gradient fractions 4-6, RP-HPLC UV 214 nm, N = 2-5
T2 construct: (Gln^22, Asn^23)-Amyloid β-Protein (1-40) (D/I Aβ); purchased Bachem (Bubendorf, Switzerland); host or cells: chemical synthesis
Description: According to Brener et al., a QIAD assay was performed in order to evaluate the Aβ(1-42) or D/I Aβ oligomer elimination efficacies of RD2D3 and cRD2D3 [18]. In short, 80 µM lyophilized Aβ(1-42) or 40 µM D/I Aβ was preincubated for 2 h or 15 min, respectively, to enrich Aβ-oligomers. Afterwards, either 20 µM RD2D3 or cRD2D3 for Aβ(1-42) or 10 µM RD2D3 or cRD2D3 for D/I Aβ were added to the preincubated solution and coincubated for additional 30 min. Subsequently, the samples were loaded on the top of a density gradient (5–50% (w/v) iodixanol (OptiPrep, Sigma-Aldrich, Darmstadt, Germany)) followed by an ultracentrifugation step (3 h at 4 °C and 259000× g (Optima TL-100, Beckman Coulter, Brea, CA, USA)). Following the ultracentrifugation, 14 fractions (140 µL each) were harvested by upward displacement. Fraction 15 contains the dissolved pellet in 6 M guanidine hydrochloride solution. Top fractions 1–2 contained Aβ-monomers, fractions 4–6 contained the Aβ-oligomers, which are of special interest, and the bottom fractions 11–14 contained high molecular weight (co-)precipitates or aggregated Aβ. Aβ(1-42) or D/I Aβ concentrations of each fraction were determined via analytical RP-HPLC and UV absorbance detection at 214 nm.

[3] = Proteolytic stability in simulated intestinal fluid (SIF); format: in vitro ADME
Description: as §1

[4] = Proteolytic stability in human liver microsomes; format: in vitro ADME
Description: as §1

[5] = Proteolytic stability in human plasma; format: in vitro ADME
Description: as §1

**Q.** Which remaining at 4 h, 150 µM ([1]; simulated gastric fluid) does the source give for `CC(C)C[C@@H](NC(=O)[C@@H](CCCNC(=N)N)NC(=O)[C@H](NC(=O)[C@@H](CCCNC(=N)N)NC(=O)[C@H]1CCCN1C(=O)[C@@H](CCCNC(=N)N)NC(=O)[C@@H](CCCNC(=N)N)NC(=O)[C@@H](CCCNC(=N)N)NC(=O)[C@@H](CCCNC(=N)N)NC(=O)[C@@H](CCCNC(=N)N)NC(=O)[C@@H](CCCNC(=N)N)NC(=O)[C@@H](CC(N)=O)NC(=O)[C@@H](Cc1c[nH]cn1)NC(=O)[C@H](NC(=O)[C@@H](Cc1c[nH]cn1)NC(=O)[C@@H](CC(C)C)NC(=O)[C@H](NC(=O)[C@H]1CCCN1)[C@H](C)O)[C@H](C)O)[C@H](C)O)C(=O)N[C@H](Cc1c[nH]cn1)C(=O)N[C@@H](C(=O)N[C@H](Cc1c[nH]cn1)C(=O)N[C@H](CCCNC(=N)N)C(=O)N[C@H](CC(N)=O)C(=O)N[C@H](CCCNC(=N)N)C(N)=O)[C@H](C)O` [RD2D3] (H-[dP][dT][dL][dH][dT][dH][dN][dR][dR][dR][dR][dR][dR][dP][dR][dT][dR][dL][dH][dT][dH][dR][dN][dR]-NH2) here?
**A.** The remaining at 4 h, 150 µM was 100%.

**Q.** What about the remaining at 8 h, 150 µM ([1]; simulated gastric fluid) of the same compound?
**A.** The remaining at 8 h, 150 µM was 100%.

**Q.** What about the Kd (Aβ(1-42)) of the same compound?
**A.** The Kd was 18.4 ± 6.5 µM.

**Q.** And the “Terminal half-life (in plasma)” value ([2]; mouse, in vivo)?
**A.** Its value is 2.3 h.

**Q.** And the “Elimination of toxic D/I Aβ-oligomers (QIAD)” value (D/I Aβ-oligomers)?
**A.** The value was 94%.

**Q.** What about the remaining at 4 h, 150 µM ([3]; simulated intestinal fluid) of the same compound?
**A.** The remaining at 4 h, 150 µM was 100%.

**Q.** What about the remaining at 8 h, 150 µM ([3]; simulated intestinal fluid) of the same compound?
**A.** The remaining at 8 h, 150 µM was 93.5%.

**Q.** And the remaining at 8 h, 150 µM ([4]; human, microsomes)?
**A.** Its remaining at 8 h, 150 µM is 81.9%.

**Q.** And the remaining at 24 h, 150 µM ([4]; human, microsomes)?
**A.** The remaining at 24 h, 150 µM was 78.2%.

**Q.** And the remaining at 8 h, 150 µM ([5]; human, plasma)?
**A.** Its remaining at 8 h, 150 µM is 84.7%.

**Q.** And the remaining at 24 h, 150 µM ([5]; human, plasma)?
**A.** The remaining at 24 h, 150 µM was 91.9%.

**Q.** What about the remaining at 48 h, 150 µM ([5]; human, plasma) of the same compound?
**A.** Its remaining at 48 h, 150 µM is 93.7%.

**Q.** With `CC(C)C[C@H]1NC(=O)[C@@H](CCCNC(=N)N)NC(=O)[C@@H]([C@H](C)O)NC(=O)[C@@H](CCCNC(=N)N)NC(=O)[C@H]2CCCN2C(=O)[C@@H](CCCNC(=N)N)NC(=O)[C@@H](CCCNC(=N)N)NC(=O)[C@@H](CCCNC(=N)N)NC(=O)[C@@H](CCCNC(=N)N)NC(=O)[C@@H](CCCNC(=N)N)NC(=O)[C@@H](CCCNC(=N)N)NC(=O)[C@@H](CC(N)=O)NC(=O)[C@@H](Cc2c[nH]cn2)NC(=O)[C@@H]([C@H](C)O)NC(=O)[C@@H](Cc2c[nH]cn2)NC(=O)[C@@H](CC(C)C)NC(=O)[C@@H]([C@H](C)O)NC(=O)[C@H]2CCCN2C(=O)[C@@H](CCCNC(=N)N)NC(=O)[C@@H](CC(N)=O)NC(=O)[C@@H](CCCNC(=N)N)NC(=O)[C@@H](Cc2c[nH]cn2)NC(=O)[C@@H]([C@H](C)O)NC(=O)[C@@H](Cc2c[nH]cn2)NC1=O` [cRD2D3] (cyclo([dH][dN][dR][dR][dR][dR][dR][dR][dP][dR][dT][dR][dL][dH][dT][dH][dR][dN][dR][dP][dT][dL][dH][dT])) as the compound, how does the remaining at 4 h, 150 µM ([1]; simulated gastric fluid (SGF), simulated gastric fluid (Eur. Pharmacopoeia 7.0), 150 µM, 37 °C, 4 h, TCA precipitation, RP-HPLC, referenced to immediately stopped sample, mean of three independent experiments, read-out: Stability in SGF, 4 h) read?
**A.** The remaining at 4 h, 150 µM was 99.5%.

**Q.** And the remaining at 8 h, 150 µM ([1]; simulated gastric fluid (SGF), simulated gastric fluid (Eur. Pharmacopoeia 7.0), 150 µM, 37 °C, 8 h, TCA precipitation, RP-HPLC, referenced to immediately stopped sample, mean of three independent experiments, read-out: Stability in SGF, 8 h)?
**A.** The remaining at 8 h, 150 µM was 99.7%.

**Q.** What about the Kd (Aβ(1-42)) of the same compound?
**A.** The Kd was 5.63 ± 2.5 µM.

**Q.** What about the “Brain concentrations relative to RD2D3” value ([2]; C57BL/6 mice, i.v. and i.p. administration) of the same compound?
**A.** Its value is “four to five times higher”.

**Q.** What about the “Terminal half-life (in plasma)” value ([2]; C57Bl/6 wild type mice, after i.v. and i.p. administration, ref 17 (b3)) of the same compound?
**A.** Its value is 58 h.

**Q.** What about the Oral bioavailability [2] of the same compound?
**A.** The Oral bioavailability was “high oral bioavailability”.

**Q.** And the “Elimination of toxic D/I Aβ-oligomers (QIAD)” value (D/I Aβ-oligomers)?
**A.** The value was 100%.

**Q.** And the remaining at 4 h, 150 µM ([3]; simulated intestinal fluid (SIF), simulated intestinal fluid (Eur. Pharmacopoeia 7.0), 150 µM, 37 °C, 4 h, TCA precipitation, RP-HPLC, referenced to immediately stopped sample, mean of three independent experiments, read-out: Stability in SIF, 4 h)?
**A.** Its remaining at 4 h, 150 µM is 96%.

**Q.** What about the remaining at 8 h, 150 µM ([3]; simulated intestinal fluid (SIF), simulated intestinal fluid (Eur. Pharmacopoeia 7.0), 150 µM, 37 °C, 8 h, TCA precipitation, RP-HPLC, referenced to immediately stopped sample, mean of three independent experiments, read-out: Stability in SIF, 8 h) of the same compound?
**A.** Its remaining at 8 h, 150 µM is 87.2%.

**Q.** And the remaining at 8 h, 150 µM ([4]; pooled human liver microsomes, 150 µM, 37 °C, 8 h, TCA precipitation, RP-HPLC, mean of three independent experiments, read-out: Stability in human liver microsomes, 8 h)?
**A.** The remaining at 8 h, 150 µM was 89.2%.

**Q.** What about the remaining at 24 h, 150 µM ([4]; pooled human liver microsomes, 150 µM, 37 °C, 24 h, TCA precipitation, RP-HPLC, mean of three independent experiments, read-out: Stability in human liver microsomes, 24 h) of the same compound?
**A.** The remaining at 24 h, 150 µM was 73.6%.

**Q.** And the remaining at 8 h, 150 µM ([5]; human plasma (K3-EDTA), 150 µM, 37 °C, 8 h, TCA precipitation, RP-HPLC, mean of three independent experiments, read-out: Stability in human plasma, 8 h)?
**A.** Its remaining at 8 h, 150 µM is 91.8%.

**Q.** And the remaining at 24 h, 150 µM ([5]; human plasma (K3-EDTA), 150 µM, 37 °C, 24 h, TCA precipitation, RP-HPLC, mean of three independent experiments, read-out: Stability in human plasma, 24 h)?
**A.** Its remaining at 24 h, 150 µM is 93.7%.

**Q.** And the remaining at 48 h, 150 µM ([5]; human plasma (K3-EDTA), 150 µM, 37 °C, 48 h, TCA precipitation, RP-HPLC, mean of three independent experiments, read-out: Stability in human plasma, 48 h)?
**A.** Its remaining at 48 h, 150 µM is 92.4%.
